ChEMBL document CHEMBL1136671, “Amino propynyl benzoic acid building block in rigid spacers of divalent ligands binding to the Syk SH2 domains with equally high affinity as the natural ligand” (Bioorg Med Chem Lett, 2003)
Numbered stars: 1 amine (or outer) side, 2 acyl side, 3 side chain; on linkers, the order of the positions; unused ones are H or OH. Square brackets hold non-standard residues; d marks the D form. Peptide text beside a SMILES is read from it. NH(CH2CH2O)6CH2CO = O=C(COCCOCCOCCOCCOCCOCCN[*:1])[*:2]; pY = N[C@@H](Cc1ccc(OP(=O)(O)O)cc1)C(=O)O; X1 = O=C(c1ccc(C#CCN[*:1])cc1)[*:2]

Tests used:
[1] = biological target: T1, Tyrosine-protein kinase SYK (Homo sapiens, UniProt P43405); test: Dissociation binding constant for Syk tandem SH2 domain
[2] = biological target: T1, Tyrosine-protein kinase SYK; test: Binding affinity for Syk tandem SH2 domain in surface plasmon resonance assay (SPR)

| Kd [1] | IC50 [2] | Compound |
| --- | --- | --- |
| 37 nM | 130 nM | CC(=O)N[C@@H](Cc1ccc(OP(=O)(O)O)cc1)C(=O)N[C@H](C(=O)NCC(=O)N[C@@H](CC(C)C)C(=O)N[C@@H](CC(N)=O)C(=O)N[C@H](C(=O)N[C@@H](CCCN=C(N)N)C(=O)N[C@@H](CO)C(=O)N[C@@H](CCC(N)=O)C(=O)N[C@@H](CCC(=O)O)C(=O)N[C@H](C(=O)N[C@@H](Cc1ccc(OP(=O)(O)O)cc1)C(=O)N[C@@H](CCC(=O)O)C(=O)N[C@H](C(=O)N[C@@H](CC(C)C)C(N)=O)[C@@H](C)O)[C@@H](C)O)[C@@H](C)O)[C@@H](C)O (Ac-[pY]TGLNTRSQET[pY]ETL-NH2) |
| 4000 nM | 62000 nM | CC(=O)N[C@@H](Cc1ccc(OP(=O)(O)O)cc1)C(=O)N[C@H](C(=O)NCC(=O)N[C@@H](CC(C)C)C(=O)NCC(=O)NCC#Cc1ccc(C(=O)NCC(=O)N[C@@H](Cc2ccc(OP(=O)(O)O)cc2)C(=O)N[C@@H](CCC(=O)O)C(=O)N[C@H](C(=O)N[C@@H](CC(C)C)C(N)=O)[C@@H](C)O)cc1)[C@@H](C)O (Ac-[pY]TGLG[X1]G[pY]ETL-NH2) |

The remaining lines, values behind:

| Compound | Kd [1] | IC50 [2] |
| --- | --- | --- |
| CC(=O)N[C@@H](Cc1ccc(OP(=O)(O)O)cc1)C(=O)N[C@H](C(=O)NCC(=O)N[C@@H](CC(C)C)C(=O)NCCOCCOCCOCCOCCOCCOCC(=O)N[C@@H](Cc1ccc(OP(=O)(O)O)cc1)C(=O)N[C@@H](CCC(=O)O)C(=O)N[C@H](C(=O)N[C@@H](CC(C)C)C(N)=O)[C@@H](C)O)[C@@H](C)O (Ac-[pY]TGL[NH(CH2CH2O)6CH2CO][pY]ETL-NH2) | 340 nM | 1200 nM |
| CC(=O)N[C@@H](Cc1ccc(OP(=O)(O)O)cc1)C(=O)N[C@@H](CCC(=O)O)C(=O)N[C@H](C(=O)N[C@@H](CC(C)C)C(N)=O)[C@@H](C)O (Ac-[pY]ETL-NH2) | 166000 nM | 570000 nM |
| CC(=O)N[C@@H](Cc1ccc(OP(=O)(O)O)cc1)C(=O)N[C@H](C(=O)NCC(=O)N[C@@H](CC(C)C)C(=O)NCC#Cc1ccc(C(=O)NCC#Cc2ccc(C(=O)N[C@@H](Cc3ccc(OP(=O)(O)O)cc3)C(=O)N[C@@H](CCC(=O)O)C(=O)N[C@H](C(=O)N[C@@H](CC(C)C)C(N)=O)[C@@H](C)O)cc2)cc1)[C@@H](C)O (Ac-[pY]TGL[X1][X1][pY]ETL-NH2) | 29 nM | 100 nM |
